# Measured values from patent US20170340584A1 (priority 2014, published 2017).
# Key:
# [1] = Blood biochemistry (triglyceride, AST, ALT) in high-fat diet mice; type: in vivo, mice (C57BL/6)
# Description: (§1) Using 8-week-old male mice (C57BL/6) (purchased from CoreTech), anti-diabetic candidate materials were evaluated using a GTT (Glucose Tolerance Test) that is a typical method for diagnosis of diabetes.
# (§2) As feed, high-fat diet (60% of calories from fat; Research Diet Inc., New Brunswick, N.J.) and water were fed ad libitum for 10 weeks. Herein, the water fed contained the samples prepared in Examples 1-2 (3), 2-1, 2-4-1, 2-4-2 and 2-5. As a positive control, metformin (M-072, Sigma) (250 mg/kg) was used, and as a control, the samples prepared in Comparative Examples 1-1, 2-3-2, 2-5-1, 2-5-2 and 2-6 were used.
# In blood biochemistry, insulin (AKRIN-011T, Shibayagi, Japan), glucose (AM202, Asan Pharmaceutical Co., Ltd., Korea), triglyceride (AM157, Asan Pharmaceutical Co., Ltd.), total cholesterol (AM202, Asan Pharmaceutical Co., Ltd.), AST and ALT (Asan Pharmaceutical Co., Ltd.) were analyzed using enzymatic assay kits.
# (§3) At 10 weeks of high-fat diet feeding, the mice were sacrificed by cervical dislocation to obtain serum. For histological examination, the liver, white adipose tissue (WAT), brown adipose tissue (BAT) and kidney were fixed with formalin (50-00-0, Junsei, Japan), and the remaining organs were stored at −70° C. The blood sampled from the heart was coagulated to obtain serum which was then stored at −70° C.
# (§4) Meanwhile, experimental analysis results were expressed as mean±S.E.M., and the significance between test groups was statistically processed using Student T-TEST, and then the significance was verified at *P<0.05.
# [2] = Scanning electron microscope (SEM) analysis, particle size; type: physicochemical
# Description: For reference, an analysis instrument and analysis conditions are as follows. (1) Analysis instrument: HITACHI (S-2700), Japan (2) Electron gun: Tungsten filament type (3) Resolution: 4.0 nm (4) Accelerating voltage: 15.0 kV.
# [3] = Body weight and body weight gain of high-fat diet mice; type: in vivo, mice (C57BL/6); settings: sample in drinking water, metformin 250 mg/kg
# Description: as §1
# (§5) Mice were housed at a temperature of 22±2° C. and a relative humidity of 55-60% with 12-hr light/12-hr dark cycles. Five animals were allotted to each group, and mice from the same mother were grouped into one group, because male mice tend to fight together.
# as §2
# (§6) For reference, each of the samples prepared in Examples 2-4-1, 2-4-2 and 2-5 was set to the amount to be taken by an adult (60 kg) for 3 days, and the amount was converted into a mouse dose (12-fold/kg, see the US NIH guidance), thereby preparing animal feed. Namely, the amount to be taken by an adult (60 kg) for 3 days is 180-day dose/kg, which corresponds to 15-day dose/kg for mice. Thus, the amount corresponds to 750-day dose/mouse (20 g), because the average weight of mice is about 20 g. Thus, one mouse was allowed to take 1/750 of the prepared sample each day.
# (§7) In addition, each of the samples prepared in Examples 1-2 (3) and 2-1 was set to the amount to be taken by an adult (60 kg) for 2 days, and the amount was converted into a mouse dose (12-fold/kg, see the US NIH guidance), thereby preparing animal feed. Namely, the amount to be taken by an adult (60 kg) for 2 days is 120-day dose/kg, which corresponds to 10-day dose/kg for mice. Thus, the amount corresponds to 500-day dose/mouse (20 g), because the average weight of mice is about 20 g. Thus, one mouse was allowed to take 1/500 of the prepared sample each day.
# The diet intake and the body weight gain were measured weekly for 8 weeks. The body weight and the diet intake were measured immediately before first drug administration, and then measured at one-week intervals.
# as §4
# [4] = tested on: liver, white adipose tissue (WAT), brown adipose tissue (BAT) and kidney; test: Histological examination of high-fat diet mice; type: in vivo, mice (C57BL/6); settings: 10 weeks of high-fat diet feeding
# Description: as §3
# For histological examination, the major organs and adipose were fixed in 4% neutral buffered formalin and embedded in paraffin blocks, and the paraffin blocks were sectioned at 5 μm and stained with hymatoxylin (MHS-16, Sigma-Aldrich, USA) and eosin (HT110116, Sigma-Aldrich). The prepared tissue samples were mounted in glycerin gel mounting media (SP15-100, Fisher Scientific, USA), covered with cover glass, and observed with a microscope (IX71, OLYMPUS, USA). The tissue was imaged with the camera equipped in the microscope.
# [5] = Thermogravimetric analysis (TGA); type: physicochemical; settings: first-order differentiation of TGA; N2, 20° C./min
# Description: For reference, an analysis instrument and analysis conditions are as follows. (1) Analysis instrument: TGA 7 (Perkin-Elmer) (2) Atmosphere: N2 gas (3) Heating rate: 20° C./min (4) Range: 50 to 600° C.
# [6] = Glucose tolerance test (GTT) in high-fat diet mice; type: in vivo, mice (C57BL/6); settings: for Glucose level (mg/dl), Mean: GTT, high-fat diet mice
# Description: as §1, §5, §2, §6, §7
# At 8 weeks of high-fat diet feeding, a glucose tolerance test (GTT) was performed. For 8 hours for the test, mice were fasted. Then, blood was sampled from the tail vein, and initial blood glucose levels were measured with a blood glucose meter (AUTO-CHEK, Diatech Korea). Then, glucose was administered intraperitoneally to the mice at a concentration of 1 g/kg, and after 30 min, 60 min, 90 min and 120 min, blood was sampled from the mice, followed by measurement of blood glucose levels (each group consisting of five animals).
# as §4
structure (smiles),measurement,setting,value
"NCCS(=O)(=O)O [DT15, modified taurine]",ALT level,[1],lower than those of DT19
same,AST level,[1],lower than those of DT19
same,Triglyceride level,[1],significantly lower than that of DT19 (taurine)
same,"ALT level (IU/L), Mean",[1]; blood,14.02 IU/L
same,"AST level (IU/L), Mean",[1]; blood,98.96 IU/L
same,"Triglyceride level (mg/dl), Mean",[1]; blood,53.62 mg/dL
same,Average particle size,[2],190.84 μm
same,Median particle size,[2],122.47 μm
same,"Body weight gain, Mean",[3]; 1 week,2.65 g
same,"Body weight, Mean",[3]; 1 week,20.30 g
same,"Body weight gain, Mean",[3]; 2 weeks,4.40 g
same,"Body weight, Mean",[3]; 2 weeks,22.05 g
same,"Body weight gain, Mean",[3]; 3 weeks,6.28 g
same,"Body weight, Mean",[3]; 3 weeks,23.93 g
same,"Body weight gain, Mean",[3]; 4 weeks,7.53 g
same,"Body weight, Mean",[3]; 4 weeks,25.18 g
same,"Body weight gain, Mean",[3]; 5 weeks,8.38 g
same,"Body weight, Mean",[3]; 5 weeks,26.03 g
same,"Body weight gain, Mean",[3]; 6 weeks,10.25 g
same,"Body weight, Mean",[3]; 6 weeks,27.90 g
same,"Body weight gain, Mean",[3]; 7 weeks,11.10 g
same,"Body weight, Mean",[3]; 7 weeks,28.75 g
same,"Body weight, Mean",[3]; 8 weeks,29.23 g
same,"Body weight, Mean",[3]; before administration,17.65 g
same,Accumulation of adipose in brown adipose tissue,[4],decreased
same,Development of fatty liver,[4],decreased
same,Nephrotoxicity,[4]; kidney tissue,did not appear
same,Final decomposition temperature,[5],396 °C
same,First decomposition temperature,[5],359 °C
same,"Glucose level (mg/dl), Mean",[6]; 0 min,121.25 mg/dL
same,"Glucose level (mg/dl), Mean",[6]; 30 min,335.25 mg/dL
same,"Glucose level (mg/dl), Mean",[6]; 60 min,295.25 mg/dL
same,"Glucose level (mg/dl), Mean",[6]; 90 min,193.75 mg/dL
same,"Glucose level (mg/dl), Mean",[6]; 120 min,126.25 mg/dL
same,Fasting glucose level,"[6]; at 8 weeks of high-fat diet feeding, 8 hours fasted","lower than that of the mice administered with high-fat diet (HFD), and were similar to the blood glucose levels of normal mice"
same,Glucose control ability in GTT,"[6]; at 8 weeks of high-fat diet feeding, glucose 1 g/kg intraperitoneally, 30-120 min",significantly higher than that of the group administered with HFD alone
